The structures appear in SMILES notation. Active and inactive are the calls of the source. How the calls were made is not given here.

The target in the test is intestinal alkaline phosphatase (Alpi), Mus musculus. Description: activators of mouse IAP enzyme, SAR follow-up, biochemical, luminescence (AID 493146). To be noted: purified mouse IAP, luminescent substrate, activation.
As usually defined, the EC50 is the concentration giving half of the maximal effect. `CCOc1ccc2nc(NC(=O)CN(C)S(=O)(=O)c3ccc4[nH]c(=O)oc4c3)sc2c1`: the EC50 is > 100 µM (inactive).

As to `N#Cc1cccc(NC(=O)CSc2sc3c(O)cc(=O)[nH]c3c2C#N)c1`, the EC50 is > 100 µM (inactive).

On to `O=C(CN1C(=O)/C(=C\c2ccco2)SC1=S)Nc1cccc(C(=O)O)c1`, for which the EC50 was > 100 µM (inactive).

Regarding `O=C(O)CC(C(=O)O)N1C(=O)/C(=C/c2ccc(-c3nc4ccccc4s3)o2)SC1=S` (configuration not stated), the EC50 was > 100 µM (inactive).

As for `O=C(N/N=C/c1ccsc1)c1cc(O)c(O)c(O)c1`, the EC50 is > 100 µM (inactive).

On to `O=C(CN1C(=O)/C(=C/c2ccco2)SC1=S)Nc1ccc(C(=O)O)cc1`, for which the EC50 was > 100 µM (inactive).

Consider `O=C(N/N=C/C1CC2CCC1C2)c1cc(O)c(O)c(O)c1` (configuration not stated), for which the EC50 was > 100 µM (inactive).

`COc1ccc(CNC(=O)CSc2sc3c(O)cc(=O)[nH]c3c2C#N)cc1OC`: the EC50 was > 100 µM (inactive).

Consider `CC(C(=O)Nc1cccc(C(=O)O)c1)N1C(=O)/C(=C\c2ccco2)SC1=S` (configuration not stated), for which the EC50 is > 100 µM (inactive).

Turning to `O=C(CCNS(=O)(=O)c1ccc2[nH]c(=O)oc2c1)Nc1cccc(-c2ccno2)c1`, the EC50 was > 100 µM (inactive).

In the case of `S=C(NCCC(c1ccccc1)c1ccccc1)Nc1ccc(Cl)cc1Cl`, the concentration giving a half-maximal response (EC50) is 7.1 µM.

Take `O=S(=O)(Nc1ncccn1)c1ccc(NC(=S)NCCC(c2ccccc2)c2ccccc2)cc1`: the EC50 was > 100 µM (inactive).

For the molecule `CN(C(=O)CN1C(=O)/C(=C\c2ccco2)SC1=S)C1CCS(=O)(=O)C1` (configuration not stated), the EC50 was > 100 µM (inactive).

As for `COc1ccc(NC(=O)CSc2sc3c(O)cc(=O)[nH]c3c2C#N)c(OC)c1`, the EC50 was > 100 µM (inactive).

For the molecule `COc1ccc(NC(=S)NCCC(c2ccccc2)c2ccccc2)cc1`, the EC50 was 37.7 µM.

With `Cc1ccc(/C=N/NC(=O)c2cc(O)c(O)c(O)c2)cc1`, the EC50 is > 100 µM (inactive).

On to `Cc1ccc(NC(=O)CCNS(=O)(=O)c2ccc3[nH]c(=O)oc3c2)cc1F`, for which the EC50 is > 100 µM (inactive).

In the case of `C/C(=N\NC(=O)c1cc(O)c(O)c(O)c1)c1ccncc1`, the EC50 was > 100 µM (inactive).

For the molecule `O=C(CCN1C(=O)/C(=C/c2ccco2)SC1=S)Nc1ccc(O)cc1C(=O)O`, the EC50 is > 100 µM (inactive).

Regarding `CC(C(=O)Nc1ccc(C(=O)O)cc1)N1C(=O)/C(=C\c2ccco2)SC1=S` (configuration not stated), the EC50 was > 100 µM (inactive).

Regarding `CCOC(=O)N1CCC(NC(=O)CSc2sc3c(O)cc(=O)[nH]c3c2C#N)CC1`, the EC50 was > 100 µM (inactive).

Take `Cc1ccc(NC(=O)CCNS(=O)(=O)c2ccc3[nH]c(=O)oc3c2)cc1N(C)C`: the EC50 was > 100 µM (inactive).

`O=C(CN1C(=O)/C(=C/c2ccco2)SC1=S)N[C@@H]1CSC[C@@H]1O`: the EC50 is > 100 µM (inactive).

As to `CC(C)N1CCC(=NNC(=O)c2cc(O)c(O)c(O)c2)CC1`, the EC50 was > 100 µM (inactive).

Take `O=C(C1CCN(S(=O)(=O)c2ccc3[nH]c(=O)oc3c2)CC1)N1CC=C(c2ccccc2)CC1`: the EC50 is > 100 µM (inactive).

For the molecule `COc1ccc(OC)c(NC(=O)CCNS(=O)(=O)c2ccc3[nH]c(=O)oc3c2)c1`, the EC50 is > 100 µM (inactive).

Turning to `N#Cc1c(SCC(=O)Nc2ccc(C(F)(F)F)cc2)sc2c(O)cc(=O)[nH]c12`, the EC50 is > 100 µM (inactive).

On to `Cc1csc(NC(=O)CSc2sc3c(O)cc(=O)[nH]c3c2C#N)n1`, for which the EC50 is > 100 µM (inactive).

Consider `O=C(CCCN1C(=O)/C(=C/c2ccco2)SC1=S)Nc1ccccc1`, for which the EC50 was > 100 µM (inactive).

`N#Cc1cccc(NC(=O)CCNS(=O)(=O)c2ccc3[nH]c(=O)oc3c2)c1`: the EC50 was > 100 µM (inactive).

`COc1ccc(OC)c(NC(=O)CSc2sc3c(O)cc(=O)[nH]c3c2C#N)c1`: the EC50 is > 100 µM (inactive).

For `CC(C)C(C(=O)NC1CCS(=O)(=O)C1)N1C(=O)/C(=C\c2ccco2)SC1=S` (configuration not stated), the EC50 is > 100 µM (inactive).

The values above are taken from PubChem BioAssay AID493146 (Sanford-Burnham Center for Chemical Genomics, 2011).
